Holding throughout (type): functional
One assay concerns P388. Put plainly: Antitumor activity against mouse P388 cells. As to conditions: for EC50: read-out: ED50 (the source's name).
The test system of a further assay is HOP-62. As to the kind of experiment: Antitumor activity against human HOP62 cells.
The next assay deals with DMS-273. As to the kind of experiment: Antitumor activity against human DMS273 cells.
In the next assay the test system is RXF 393. As to the kind of experiment: Antitumor activity against human RXF393 cells.
The test system of the next assay is U-251. Put plainly: Antitumor activity against human U251 cells.
The test system of a further assay is SF-295. Put plainly: Antitumor activity against human SF295 cells.
A further assay deals with CCRF-CEM. Put plainly: Antitumor activity against human CCRF-CEM cells.
A further assay relates to HL-60. As to the kind of experiment: Antitumor activity against human HL60 cells.
The nature of assay [1]: Antitumor activity against human […] cells.

`C[C@@H]1[C@]2(O[C@H]3C=C4[C@@H]5CC[C@H]6Cc7nc8c(nc7C[C@]6(C)[C@H]5C[C@@H](O)[C@]4(C)[C@]31O)C[C@@H]1CC[C@H]3C4=C[C@@H]5O[C@]6(CC[C@](C)(O)CO6)C[C@]5(O)[C@@]4(C)[C@H](O)C[C@@H]3[C@@]1(C)C8)O[C@](C)(CO)C[C@H]2O` [CEPHALOSTATIN 7]: the GI50 with P388, in the assay with HOP-62, with DMS-273, in the assay with RXF 393, with U-251 and in the assay with SF-295 was less than 0.1 nM each time. For the same molecule, the GI50 (in the assay with CCRF-CEM; in the assay on HL-60; in [1]) was less than 0.1 nM in each case.

With `C[C@@H]1[C@@]2(CC[C@](C)(O)CO2)O[C@H]2C=C3[C@@H]4CC[C@H]5Cc6nc7c(nc6C[C@]5(C)[C@H]4C[C@@H](O)[C@]3(C)[C@]21O)C[C@@H]1CC[C@H]2C3=C[C@@H]4O[C@]5(CC[C@@](C)(O)CO5)[C@@H](C)[C@@H]4[C@@]3(C)[C@H](O)C[C@@H]2[C@@]1(C)C7` [RITTERAZINE L], in the assay with P388, the EC50 was found to be 11.1 nM.

On to `C[C@@H]1[C@@]2(CC[C@](C)(O)CO2)O[C@H]2C=C3[C@@H]4CC[C@H]5Cc6nc7c(nc6C[C@]5(C)[C@H]4C[C@@H](O)[C@]3(C)[C@]21O)C[C@@H]1CC[C@H]2C3=C[C@@H]4O[C@@]5(CC[C@](C)(O)CO5)[C@@H](C)[C@@H]4[C@@]3(C)[C@H](O)C[C@@H]2[C@@]1(C)C7` [RITTERAZINE M], for which the EC50 in the assay on P388 stood at 16.7 nM.

Turning to `C[C@H]1[C@H]2[C@H](C[C@]3(C(=O)C[C@@H]4[C@H]3CC[C@H]3Cc5nc6c(nc5C[C@@]34C)C[C@@H]3CC[C@@H]4[C@H](CC(=O)[C@]45C[C@@H]4O[C@@]7(CCC(C)(C)O7)[C@@H](C)[C@@H]4[C@]5(C)O)[C@@]3(C)C6)[C@@]2(C)O)O[C@@]12CCC(C)(C)O2` [RITTERAZINE N], the EC50 in the assay on P388 came out at 522 nM.

Turning to `C[C@H]1[C@H]2[C@H](C[C@]3(C(=O)C[C@@H]4[C@H]3CC[C@H]3Cc5nc6c(nc5C[C@@]34C)C[C@@H]3CC[C@@H]4[C@H](CC(=O)[C@]45C[C@@H]4O[C@@]7(CCC(C)(C)O7)[C@@H](C)[C@@H]4[C@]5(C)O)[C@@]3(C)C6)[C@@]2(C)O)O[C@]12CCC(C)(C)O2` [RITTERAZINE O], in the assay with P388, the EC50 came out at 2380 nM.

As for `C[C@H]1[C@H]2[C@H](C[C@@H]3[C@@H]4CC[C@H]5Cc6nc7c(nc6C[C@]5(C)[C@H]4C[C@@H](O)[C@]23C)C[C@@H]2CC[C@@H]3[C@@H](CC(=O)[C@]34C[C@@H]3O[C@@]5(CCC(C)(C)O5)[C@@H](C)[C@@H]3[C@]4(C)O)[C@@]2(C)C7)O[C@@]12CCC(C)(C)O2` [RITTERAZINE P], the EC50 with P388 turned out to be 819 nM.

As for `C[C@H]1[C@H]2[C@H](C[C@@H]3[C@@H]4CC[C@H]5Cc6nc7c(nc6C[C@]5(C)[C@H]4C[C@@H](O)[C@]23C)C[C@@H]2CC[C@@H]3[C@@H](CC(=O)[C@]34C[C@@H]3O[C@]5(CCC(C)(C)O5)[C@@H](C)[C@@H]3[C@]4(C)O)[C@@]2(C)C7)O[C@@]12CCC(C)(C)O2` [RITTERAZINE Q], the EC50 in the assay with P388 turned out to be 657 nM.

In the case of `C[C@H]1[C@H]2[C@H](C[C@@H]3[C@@H]4CC[C@H]5Cc6nc7c(nc6C[C@]5(C)[C@@H]4C[C@@H](O)[C@]23C)C[C@@H]2CC[C@H]3[C@H]4C[C@@H]5O[C@@]6(CCC(C)(C)O6)[C@@H](C)[C@@H]5[C@@]4(C)[C@H](O)C[C@@H]3[C@@]2(C)C7)O[C@@]12CCC(C)(C)O2` [RITTERAZINE R], in the assay with P388, the EC50 turned out to be 2460 nM.

As for `C[C@H]1[C@H]2[C@H](C[C@@H]3[C@@H]4CC[C@H]5Cc6nc7c(nc6C[C@]5(C)[C@@H]4C[C@@H](O)[C@]23C)C[C@@H]2CC[C@H]3[C@H]4C[C@@H]5O[C@@]6(CCC(C)(C)O6)[C@@H](C)[C@@H]5[C@@]4(C)[C@H](O)C[C@@H]3[C@@]2(C)C7)O[C@]12CCC(C)(C)O2` [RITTERAZINE S], the EC50 with P388 worked out at 539 nM.

Take `C[C@H]1[C@H]2[C@H](C=C3[C@@H]4CC[C@H]5Cc6nc7c(nc6C[C@]5(C)[C@@H]4C[C@@H](O)[C@@]32C)C[C@@H]2CC[C@@H]3[C@H](CC(=O)[C@]34C[C@@H]3O[C@@]5(CCC(C)(C)O5)[C@@H](C)[C@@H]3[C@]4(C)O)[C@@]2(C)C7)O[C@]12CC[C@](C)(O)CO2` [RITTERAZINE T]: the EC50 with P388 is 522 nM.

On to `C[C@H]1[C@H]2[C@H](C[C@]3(C(=O)C[C@H]4[C@H]3CC[C@H]3Cc5nc6c(nc5C[C@@]34C)C[C@@H]3CC[C@@H]4[C@@H](CC(=O)[C@]5(C)[C@@H]7[C@H](C[C@]45O)O[C@]4(CC[C@](C)(O)CO4)[C@H]7C)[C@@]3(C)C6)[C@@]2(C)O)O[C@@]12CCC(C)(C)O2` [RITTERAZINE U], for which, in the assay on P388, the EC50 is 2340 nM.

`C[C@H]1[C@H]2[C@H](C=C3[C@@H]4CC[C@H]5Cc6nc7c(nc6C[C@]5(C)[C@@H]4C[C@@H](O)[C@@]32C)C[C@@H]2CC[C@@H]3[C@H](CC(=O)[C@]34C[C@@H]3O[C@@]5(CCC(C)(C)O5)[C@@H](C)[C@@H]3[C@]4(C)O)[C@@]2(C)C7)O[C@]12C[C@](C)(CO)CO2` [RITTERAZINE W]: the EC50 with P388 was found to be 3630 nM.

Consider `C[C@H]1[C@H]2[C@H](C=C3[C@@H]4CC[C@H]5Cc6nc7c(nc6C[C@]5(C)[C@@H]4C[C@@H](O)[C@@]32C)C[C@@H]2CC[C@@H]3[C@H](CC(=O)[C@]34C[C@@H]3O[C@]5(CCC(C)(C)O5)[C@@H](C)[C@@H]3[C@]4(C)O)[C@@]2(C)C7)O[C@]12C[C@](C)(CO)CO2` [RITTERAZINE X], for which the EC50 with P388 is 3400 nM.

Consider `C[C@H]1[C@H]2[C@H](C=C3[C@@H]4CC[C@H]5Cc6nc7c(nc6C[C@]5(C)[C@@H]4C[C@@H](O)[C@@]32C)C[C@@H]2CC[C@H]3[C@H]4C[C@@H]5O[C@@]6(CCC(C)(C)O6)[C@@H](C)[C@@H]5[C@@]4(C)[C@H](O)C[C@@H]3[C@@]2(C)C7)O[C@]12CC[C@](C)(O)CO2` [RITTERAZINE Y], for which the EC50 with P388 came out at 4 nM.

Turning to `C[C@@H]1[C@H](C)[C@]2(OC[C@]34C(=O)C[C@@H]5[C@@H](CC[C@H]6Cc7nc8c(nc7C[C@@]65C)C[C@@H]5CC[C@@H]6[C@H](CC(=O)[C@]67C[C@@H]6O[C@@]9(CCC(C)(C)O9)[C@@H](C)[C@@H]6[C@]7(C)O)[C@@]5(C)C8)[C@H]3C[C@H](O)[C@@H]4[C@H]2C)OC1(C)C` [RITTERAZINE Z], the EC50 with P388 was determined as 2200 nM.

These data come from ChEMBL document CHEMBL1144741, “Review of cytotoxic cephalostatins and ritterazines: isolation and synthesis” (2008).
